Source: US6358885B1, “Substituted phenylheterocyclic herbicides” (Mississippi State University, priority 1992, dated 2002)

What was measured:
[1] = test system: barnyardgrass; experiment: Test A preemergence/postemergence greenhouse plant response rating 0 to 10; assay type: in vivo, Echinochchloa crus-galli; conditions: 0 to 10 scale, 0 is no effect, 10 is complete control
Description: (§1) Seeds of barnyardgrass (Echinochchloa crus-galli), cheatgrass (Bromus secalinus), cocklebur (Xanthium pensylvanicum), crabgrass (Digitaria spp.), giant foxtail (Setaria faberii), morningglory (Ipomoea spp.), sorghum (Sorghum bicolor), velvetleaf (Abutilon theophrasti), and wild oat (Avena fatua) were planted into a sandy loam soil and treated preemergence with test chemicals dissolved in a non-phytotoxic solvent. At the same time, these crop and weed species were also treated postemergence with test chemicals. Plants ranged in height from two to eighteen cm and were in the two to three leaf stage for the postemergence treatment. Treated plants and untreated controls were maintained in a greenhouse for approximately eleven days, after which all treated plants were compared to untreated controls and visually evaluated for injury. Plant response ratings, summarized in Table A, are based on a 0 to 10 scale where 0 is no effect and 10 is complete control. A dash (-) response means no test results.

[2] = test system: cheatgrass; experiment: as above; assay type: in vivo, Bromus secalinus; conditions: 0 to 10 scale, 0 is no effect, 10 is complete control
Description: as §1

[3] = test system: cocklebur; experiment: as above; assay type: in vivo, Xanthium pensylvanicum; conditions: 0 to 10 scale, 0 is no effect, 10 is complete control
Description: as §1

[4] = test system: crabgrass; experiment: as above; assay type: in vivo, Digitaria spp.; conditions: 0 to 10 scale, 0 is no effect, 10 is complete control
Description: as §1

[5] = test system: giant foxtail; experiment: as above; assay type: in vivo, Setaria faberii; conditions: 0 to 10 scale, 0 is no effect, 10 is complete control
Description: as §1

[6] = test system: morningglory; experiment: as above; assay type: in vivo, Ipomoea spp.; conditions: 0 to 10 scale, 0 is no effect, 10 is complete control
Description: as §1

[7] = test system: sorghum; experiment: as above; assay type: in vivo, Sorghum bicolor; conditions: 0 to 10 scale, 0 is no effect, 10 is complete control
Description: as §1

[8] = test system: velvetleaf; experiment: as above; assay type: in vivo, Abutilon theophrasti; conditions: 0 to 10 scale, 0 is no effect, 10 is complete control
Description: as §1

[9] = test system: wild oat; experiment: as above; assay type: in vivo, Avena fatua; conditions: 0 to 10 scale, 0 is no effect, 10 is complete control
Description: as §1

[10] = test system: barnyardgrass; experiment: Test H postemergence greenhouse plant response rating 0 to 10; assay type: in vivo, Echinochloa crus-galli; conditions: 0 to 10 scale (0 no effect, 10 complete control)
Text: (§2) Seeds of barnyardgrass (Echinochloa crus-galli), black nightshade (Solanum ptycanthum dunal), cocklebur (Xanthium pensylvanicum), common ragweed (Ambrosia elatior), corn (Zea mays), cotton (Gossypium hirsutam), crabgrass (Digitaria spp.), giant foxtail (Setaria faberii), jimsonweed (Datura stramonium), johnson grass (Sorghum halepense), morningglory (Ipomoea spp.), smartweed (Polygonum pensylvanicum), soybean (Glycine max), velvetleaf (Abutilon theophrasti) and purple nutsedge (Cyperus rotundus) tubers were planted into a silt loam soil. These crops and weeds were grown in the greenhouse until the plants ranged in height from two to eighteen cm (one to four leaf stage), then treated postemergence with the test chemicals dissolved in a non-phytotoxic solvent. Pots receiving these postemergence treatments were placed in the greenhouse and maintained according to routine greenhouse procedures. Treated plants and untreated controls were maintained in the greenhouse approximately 21 days after application of the test compound. Visual evaluations of plant injury responses were then recorded.

[11] = test system: black nightshade; experiment: as above; assay type: in vivo, Solanum ptycanthum dunal; conditions: 0 to 10 scale (0 no effect, 10 complete control)
Text: as §2

[12] = test system: cocklebur; experiment: as above; assay type: in vivo, Xanthium pensylvanicum; conditions: 0 to 10 scale (0 no effect, 10 complete control)
Text: as §2

[13] = test system: common ragweed; experiment: as above; assay type: in vivo, Ambrosia elatior; conditions: 0 to 10 scale (0 no effect, 10 complete control)
Text: as §2

[14] = test system: corn; experiment: as above; assay type: in vivo, Zea mays; conditions: 0 to 10 scale (0 no effect, 10 complete control)
Text: as §2

[15] = test system: cotton; experiment: as above; assay type: in vivo, Gossypium hirsutam; conditions: 0 to 10 scale (0 no effect, 10 complete control)
Text: as §2

[16] = test system: crabgrass; experiment: as above; assay type: in vivo, Digitaria spp.; conditions: 0 to 10 scale (0 no effect, 10 complete control)
Text: as §2

[17] = test system: giant foxtail; experiment: as above; assay type: in vivo, Setaria faberii; conditions: 0 to 10 scale (0 no effect, 10 complete control)
Text: as §2

[18] = test system: jimsonweed; experiment: as above; assay type: in vivo, Datura stramonium; conditions: 0 to 10 scale (0 no effect, 10 complete control)
Text: as §2

[19] = test system: johnson grass; experiment: as above; assay type: in vivo, Sorghum halepense; conditions: 0 to 10 scale (0 no effect, 10 complete control)
Text: as §2

[20] = test system: morningglory; experiment: as above; assay type: in vivo, Ipomoea spp.; conditions: 0 to 10 scale (0 no effect, 10 complete control)
Text: as §2

[21] = test system: smartweed; experiment: as above; assay type: in vivo, Polygonum pensylvanicum; conditions: 0 to 10 scale (0 no effect, 10 complete control)
Text: as §2

[22] = test system: soybean; experiment: as above; assay type: in vivo, Glycine max; conditions: 0 to 10 scale (0 no effect, 10 complete control)
Text: as §2

[23] = test system: velvetleaf; experiment: as above; assay type: in vivo, Abutilon theophrasti; conditions: 0 to 10 scale (0 no effect, 10 complete control)
Text: as §2

[24] = test system: purple nutsedge; experiment: as above; assay type: in vivo, Cyperus rotundus; conditions: 0 to 10 scale (0 no effect, 10 complete control)
Text: as §2

Clc1ccc(-c2nc3n(c2Cl)CCC=C3)c(Cl)c1 [Compound 1]
10: Plant response rating, Morningglory ([6]; POSTEMERGENCE, Rate 1000 g/ha) | Plant response rating, Velvetleaf ([8]; POSTEMERGENCE, Rate 1000 g/ha)
2: Plant response rating, Barnyardgrass ([1]; PREEMERGENCE, Rate 1000 g/ha)
3: Plant response rating, Wild oats ([9]; POSTEMERGENCE, Rate 1000 g/ha)
104 to 105 °C: melting point
4: Plant response rating, Cheatgrass ([2]; POSTEMERGENCE, Rate 1000 g/ha) | Plant response rating, Giant foxtail ([5]; POSTEMERGENCE, Rate 1000 g/ha) | Plant response rating, Sorghum ([7]; POSTEMERGENCE, Rate 1000 g/ha)
5: Plant response rating, Barnyardgrass ([1]; POSTEMERGENCE, Rate 1000 g/ha) | Plant response rating, Crabgrass ([4]; POSTEMERGENCE, Rate 1000 g/ha) | Plant response rating, Giant foxtail ([5]; PREEMERGENCE, Rate 1000 g/ha)
8: Plant response rating, Cocklebur ([3]; POSTEMERGENCE, Rate 1000 g/ha) | Plant response rating, Velvetleaf ([8]; PREEMERGENCE, Rate 1000 g/ha)
0: Plant response rating, Cheatgrass ([2]; PREEMERGENCE, Rate 1000 g/ha) | Plant response rating, Cocklebur ([3]; PREEMERGENCE, Rate 1000 g/ha) | Plant response rating, Crabgrass ([4]; PREEMERGENCE, Rate 1000 g/ha) | Plant response rating, Morningglory ([6]; PREEMERGENCE, Rate 1000 g/ha) | Plant response rating, Sorghum ([7]; PREEMERGENCE, Rate 1000 g/ha) | Plant response rating, Wild oats ([9]; PREEMERGENCE, Rate 1000 g/ha)

Clc1ccc(-c2nc3n(c2Br)CCCC3)c(Cl)c1 [Compound 2]
9: Plant response rating, Barnyardgrass ([1]; POSTEMERGENCE, Rate 2000 g/ha) | Plant response rating, Barnyardgrass ([1]; PREEMERGENCE, Rate 2000 g/ha) | Plant response rating, Giant foxtail ([5]; POSTEMERGENCE, Rate 2000 g/ha)
7: Plant response rating, Cheatgrass ([2]; POSTEMERGENCE, Rate 2000 g/ha) | Plant response rating, Crabgrass ([4]; POSTEMERGENCE, Rate 2000 g/ha)
0: Plant response rating, Cocklebur ([3]; PREEMERGENCE, Rate 2000 g/ha)
10: Plant response rating, Cocklebur ([3]; POSTEMERGENCE, Rate 2000 g/ha) | Plant response rating, Giant foxtail ([5]; PREEMERGENCE, Rate 2000 g/ha) | Plant response rating, Morningglory ([6]; POSTEMERGENCE, Rate 2000 g/ha) | Plant response rating, Velvetleaf ([8]; POSTEMERGENCE, Rate 2000 g/ha) | Plant response rating, Velvetleaf ([8]; PREEMERGENCE, Rate 2000 g/ha)
2: Plant response rating, Morningglory ([6]; PREEMERGENCE, Rate 2000 g/ha)
5: Plant response rating, Wild oats ([9]; POSTEMERGENCE, Rate 2000 g/ha) | Plant response rating, Wild oats ([9]; PREEMERGENCE, Rate 2000 g/ha)
6: Plant response rating, Cheatgrass ([2]; PREEMERGENCE, Rate 2000 g/ha) | Plant response rating, Sorghum ([7]; POSTEMERGENCE, Rate 2000 g/ha)
8: Plant response rating, Crabgrass ([4]; PREEMERGENCE, Rate 2000 g/ha) | Plant response rating, Sorghum ([7]; PREEMERGENCE, Rate 2000 g/ha)

C#CCN1C(=O)COc2cc(F)c(-c3nn4c(c3Cl)CCCC4)cc21 [Compound 34]
8: Smartweed plant response rating ([21]; Rate 16 g/ha)
1: Common Ragweed plant response rating ([13]; Rate 8 g/ha) | Corn G4689A plant response rating ([14]; Rate 4 g/ha) | Corn G4689A plant response rating ([14]; Rate 8 g/ha)
10: Black Nightshade plant response rating ([11]; Rate 8 g/ha) | Black Nightshade plant response rating ([11]; Rate 16 g/ha) | Cocklebur plant response rating ([12]; Rate 8 g/ha) | Cocklebur plant response rating ([12]; Rate 16 g/ha) | Cotton plant response rating ([15]; Rate 4 g/ha) | Cotton plant response rating ([15]; Rate 8 g/ha) | Cotton plant response rating ([15]; Rate 16 g/ha) | Jimson weed plant response rating ([18]; Rate 4 g/ha) | Jimson weed plant response rating ([18]; Rate 8 g/ha) | Jimson weed plant response rating ([18]; Rate 16 g/ha) | Morningglory plant response rating ([20]; Rate 4 g/ha) | Morningglory plant response rating ([20]; Rate 8 g/ha) | Morningglory plant response rating ([20]; Rate 16 g/ha) | Soybean plant response rating ([22]; Rate 16 g/ha) | Velvetleaf plant response rating ([23]; Rate 4 g/ha) | Velvetleaf plant response rating ([23]; Rate 8 g/ha) | Velvetleaf plant response rating ([23]; Rate 16 g/ha)
0: Barnyardgrass plant response rating ([10]; Rate 4 g/ha) | Barnyardgrass plant response rating ([10]; Rate 8 g/ha) | Barnyardgrass plant response rating ([10]; Rate 16 g/ha) | Common Ragweed plant response rating ([13]; Rate 4 g/ha) | Crabgrass plant response rating ([16]; Rate 4 g/ha) | Crabgrass plant response rating ([16]; Rate 8 g/ha) | Crabgrass plant response rating ([16]; Rate 16 g/ha) | Giant Foxtail plant response rating ([17]; Rate 4 g/ha) | Giant Foxtail plant response rating ([17]; Rate 8 g/ha) | Giant Foxtail plant response rating ([17]; Rate 16 g/ha) | Johnson Grass plant response rating ([19]; Rate 4 g/ha) | Johnson Grass plant response rating ([19]; Rate 8 g/ha) | Johnson Grass plant response rating ([19]; Rate 16 g/ha) | Nutsedge plant response rating ([24]; Rate 4 g/ha) | Nutsedge plant response rating ([24]; Rate 8 g/ha) | Nutsedge plant response rating ([24]; Rate 16 g/ha)
2: Common Ragweed plant response rating ([13]; Rate 16 g/ha) | Corn G4689A plant response rating ([14]; Rate 16 g/ha)
5: Black Nightshade plant response rating ([11]; Rate 4 g/ha) | Cocklebur plant response rating ([12]; Rate 4 g/ha) | Smartweed plant response rating ([21]; Rate 4 g/ha)
7: Smartweed plant response rating ([21]; Rate 8 g/ha) | Soybean plant response rating ([22]; Rate 4 g/ha) | Soybean plant response rating ([22]; Rate 8 g/ha)
